Experimental data taken from PubChem BioAssay (NCI).
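Cultured in 96-well plates, cells were exposed to test compound for 48 hours across five concentrations. GI50 = concentration required for 50% inhibition of growth. TGI: concentration producing complete growth inhibition.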

What was measured:
Test in all cases: growth of human tumour cells (NCI), 48 h
NCI-H522 lung = system: NCI-H522 lung
786-0 renal = system: 786-0 renal
UACC-257 melanoma = system: UACC-257 melanoma
CAKI-1 renal = system: CAKI-1 renal
OVCAR-4 ovarian = system: OVCAR-4 ovarian
COLO 205 colon = system: COLO 205 colon
HOP-62 NSCLC = system: HOP-62 NSCLC
SK-MEL-5 melanoma = system: SK-MEL-5 melanoma
MDA-MB-231 breast = system: MDA-MB-231 breast
PC-3 prostate = system: PC-3 prostate

## O=C(O)CN(c1ccccc1)S(=O)(=O)c1ccc(Cl)cc1
NCI-H522 lung
  TGI: > 100 µM
786-0 renal
  TGI: > 100 µM
UACC-257 melanoma
  TGI: > 100 µM
CAKI-1 renal
  TGI: > 100 µM
OVCAR-4 ovarian
  TGI: > 100 µM
COLO 205 colon
  TGI: > 100 µM

## CC1=C(/C=C/C2=CC(=C\C(=O)O)/CC(C3=C(C)CCCC3(C)C)C2)C(C)(C)CCC1 (stereo not given)
HOP-62 NSCLC
  TGI: 27 µM
NCI-H522 lung
  TGI: 22.7 µM
786-0 renal
  TGI: 28.4 µM
UACC-257 melanoma
  TGI: 29.5 µM
SK-MEL-5 melanoma
  TGI: 28 µM
CAKI-1 renal
  TGI: 29.5 µM
OVCAR-4 ovarian
  TGI: 28.1 µM
COLO 205 colon
  TGI: 30.7 µM

## O=C1NC(=O)C(=O)C(c2nc3ccccc3s2)C1=O
HOP-62 NSCLC
  TGI: > 100 µM
NCI-H522 lung
  TGI: > 100 µM
786-0 renal
  TGI: > 100 µM
UACC-257 melanoma
  TGI: > 100 µM
SK-MEL-5 melanoma
  TGI: > 100 µM
CAKI-1 renal
  TGI: > 100 µM
OVCAR-4 ovarian
  TGI: > 100 µM
COLO 205 colon
  TGI: > 100 µM

## O=C(N/C(=C\c1ccc([N+](=O)[O-])cc1)c1nc2ccc(Cl)cc2[nH]1)c1ccccc1
NCI-H522 lung
  TGI: 27.8 µM
786-0 renal
  TGI: 53 µM
SK-MEL-5 melanoma
  TGI: 33.7 µM
CAKI-1 renal
  TGI: 59.6 µM
OVCAR-4 ovarian
  TGI: 60.8 µM

## O=S1c2ccccc2N=C(c2ccc(Cl)cc2)CC1c1cccs1 (stereo not given)
HOP-62 NSCLC
  TGI: > 100 µM
NCI-H522 lung
  TGI: 83.5 µM
786-0 renal
  TGI: 28.2 µM
UACC-257 melanoma
  TGI: 63.5 µM
SK-MEL-5 melanoma
  TGI: 36.9 µM
CAKI-1 renal
  TGI: > 100 µM
OVCAR-4 ovarian
  TGI: 57.2 µM
COLO 205 colon
  TGI: 41 µM

## CCOC(=O)/C(C#N)=C\C=C1/C=CNC2=NCCN21
HOP-62 NSCLC
  TGI: > 100 µM
NCI-H522 lung
  TGI: > 100 µM
786-0 renal
  TGI: > 100 µM
UACC-257 melanoma
  TGI: > 100 µM
SK-MEL-5 melanoma
  TGI: > 100 µM
CAKI-1 renal
  TGI: > 100 µM
OVCAR-4 ovarian
  TGI: > 100 µM
COLO 205 colon
  TGI: > 100 µM

## Cc1ccc(NC(=O)CC/C(CC(=O)c2ccc(Cl)cc2)=N\NC(=O)C(=O)NN)cc1C
HOP-62 NSCLC
  TGI: > 100 µM
NCI-H522 lung
  TGI: > 100 µM
786-0 renal
  TGI: > 100 µM
UACC-257 melanoma
  TGI: > 100 µM
SK-MEL-5 melanoma
  TGI: > 100 µM
CAKI-1 renal
  TGI: > 100 µM
OVCAR-4 ovarian
  TGI: > 100 µM
COLO 205 colon
  TGI: > 100 µM

## O=C(O)CCSC(=O)Nc1cccc([N+](=O)[O-])c1
HOP-62 NSCLC
  TGI: > 100 µM
786-0 renal
  TGI: > 100 µM
UACC-257 melanoma
  TGI: > 100 µM
CAKI-1 renal
  TGI: > 100 µM
OVCAR-4 ovarian
  TGI: > 100 µM
COLO 205 colon
  TGI: > 100 µM

## C[C@]12CC(C#N)C(=O)C(O)=C1CC[C@@H]1C2CC[C@@]2(C)C1CC[C@@H]2O (stereo not given in full)
HOP-62 NSCLC
  TGI: > 100 µM
786-0 renal
  TGI: > 100 µM
UACC-257 melanoma
  TGI: > 100 µM
SK-MEL-5 melanoma
  TGI: > 100 µM
OVCAR-4 ovarian
  TGI: > 100 µM
COLO 205 colon
  TGI: > 100 µM

## Cc1cc(O)c(/C=N/c2nc(-c3cccc([N+](=O)[O-])c3)cs2)c(=O)o1
HOP-62 NSCLC
  TGI: > 100 µM
MDA-MB-231 breast
  TGI: > 100 µM
786-0 renal
  TGI: > 100 µM
UACC-257 melanoma
  TGI: > 100 µM
SK-MEL-5 melanoma
  TGI: > 100 µM
CAKI-1 renal
  TGI: > 100 µM
PC-3 prostate
  TGI: > 100 µM
OVCAR-4 ovarian
  TGI: > 100 µM
COLO 205 colon
  TGI: > 100 µM

## CC(=O)NC1C(OCc2ccccc2)OC(COC(=O)CCCCCNc2ccc([N+](=O)[O-])c3[nH]c4ccc(O)cc4c(=O)c23)C(O)C1OC(C)C(=O)N[C@@H](C)C(=O)N[C@H](CCC(=O)OCc1ccccc1)C(N)=O (stereo not given in full)
HOP-62 NSCLC
  TGI: 22.7 µM
NCI-H522 lung
  TGI: 3.61 µM
786-0 renal
  TGI: 14.3 µM
UACC-257 melanoma
  TGI: 6.38 µM
SK-MEL-5 melanoma
  TGI: > 20 µM
CAKI-1 renal
  TGI: 4.21 µM
OVCAR-4 ovarian
  TGI: 15.9 µM
COLO 205 colon
  TGI: 3.25 µM

## C[C@@H](NC1CCC[C@@H]1O)c1ccccc1 (stereo not given in full)
HOP-62 NSCLC
  TGI: > 100 µM
786-0 renal
  TGI: > 100 µM
UACC-257 melanoma
  TGI: > 100 µM
SK-MEL-5 melanoma
  TGI: > 100 µM
CAKI-1 renal
  TGI: > 100 µM
OVCAR-4 ovarian
  TGI: > 100 µM
COLO 205 colon
  TGI: > 100 µM

## COc1cc2c(=O)n(CCCn3ccnc3)c3c4cc5c(cc4ccc3c2cc1OC)OCO5
HOP-62 NSCLC
  GI50: 0.305 µM
  TGI: 5.37 µM
NCI-H522 lung
  GI50: 0.324 µM
  TGI: 17.1 µM
MDA-MB-231 breast
  GI50: 1.38 µM
  TGI: > 100 µM
786-0 renal
  GI50: 1.93 µM
  TGI: > 100 µM
PC-3 prostate
  GI50: 0.774 µM
  TGI: > 100 µM
COLO 205 colon
  GI50: 0.291 µM
  TGI: > 100 µM

## C=CCCC(C)N(C(=O)OC(C)(C)C)S(=O)(=O)c1ccc(C)cc1 (stereo not given)
HOP-62 NSCLC
  TGI: > 100 µM
NCI-H522 lung
  TGI: > 100 µM
786-0 renal
  TGI: > 100 µM
UACC-257 melanoma
  TGI: > 100 µM
CAKI-1 renal
  TGI: > 100 µM
OVCAR-4 ovarian
  TGI: > 100 µM
COLO 205 colon
  TGI: > 100 µM

## COc1cc2ccnc3c2c(c1OC)CC1CC(O)C(OC)CC31 (stereo not given)
HOP-62 NSCLC
  TGI: > 100 µM
NCI-H522 lung
  TGI: > 100 µM
786-0 renal
  TGI: > 100 µM
UACC-257 melanoma
  TGI: > 100 µM
SK-MEL-5 melanoma
  TGI: > 100 µM
OVCAR-4 ovarian
  TGI: > 100 µM
COLO 205 colon
  TGI: > 100 µM

## CN(C)Cc1cccc(CN(C)C)[c]1[Sn]([Br])([c]1ccccc1)[c]1ccccc1
HOP-62 NSCLC
  GI50: 17.2 µM
  TGI: 39.5 µM
MDA-MB-231 breast
  GI50: 15.9 µM
  TGI: 38.3 µM
786-0 renal
  GI50: 14.7 µM
  TGI: 29 µM
UACC-257 melanoma
  GI50: 16 µM
  TGI: 53.7 µM
SK-MEL-5 melanoma
  GI50: 11 µM
  TGI: 24.7 µM
CAKI-1 renal
  GI50: 21.3 µM
  TGI: 47.1 µM
PC-3 prostate
  GI50: 17.1 µM
  TGI: 96.9 µM
COLO 205 colon
  GI50: 4.37 µM
  TGI: 17.9 µM

## NNC(=O)CCC(=O)Nc1ccc(Cl)cc1Cl
HOP-62 NSCLC
  TGI: > 100 µM
NCI-H522 lung
  TGI: > 100 µM
786-0 renal
  TGI: > 100 µM
UACC-257 melanoma
  TGI: > 100 µM
SK-MEL-5 melanoma
  TGI: > 100 µM
CAKI-1 renal
  TGI: > 100 µM
OVCAR-4 ovarian
  TGI: > 100 µM
COLO 205 colon
  TGI: > 100 µM

## CC(C)Cc1ccc(C(C)/C=C2\CCC(CN3CCCC3)C2=O)cc1 (stereo not given)
HOP-62 NSCLC
  TGI: 26.1 µM
NCI-H522 lung
  TGI: 3.13 µM
786-0 renal
  TGI: 3.73 µM
UACC-257 melanoma
  TGI: 31.1 µM
SK-MEL-5 melanoma
  TGI: 28 µM
CAKI-1 renal
  TGI: 28 µM
OVCAR-4 ovarian
  TGI: 27.1 µM
COLO 205 colon
  TGI: 22.1 µM
